Patent publication EP0414895A1, “OROTATE OF $g(a)-AMINO-$g(b)-PHENYL-BUTYRIC ACID” (NAUCHNO-PROIZVODSTVENNOE OBIEDINENIE "BIOLAR", priority 1989, dated 1990)

Columns and labels:
Type in all cases: in vivo
Mäuse [1] = experiment: Phenamin-induced hypermotility in actometer
Method: Eis wurde die Wirkung der beanspruchten Verbindung auf den durch Phenamin ausgelöston Effekt der Veränderung der Hypermotorik untersucht. Phenamin wurde den Mäusen intraperitoneal in Dosen von 3 und 5 mg/kg I0 Minuten nach der enteralen oder intraperitonealen Einführung der beanspruchten Verbindung und des Pyrazetams eingeführt. Die Tiere wurden in der Kammer des photoelektrischen Aktometers untergebracht. Die motorische Aktivität wurde nach der Zahl der Impulse innerhalb von 60 Minuten bestimmt. Die Angaben sind in der Tabelle 6 angeführt.

Mäuse [2] = experiment: Anticonvulsant effect against Pikrotoxin, Bicucullin, Korazol, Thiosemikarbazid
Source text: Ausserdem wurde die krampflösende Wirkung der neuen Verbindung untersucht. Die Untersuchung wurde an männlichen weissen Mäusen bei der Einführung von Pikrotoxin, Bicucullin, Korazol, Thiosemikarbazid durchgeführt.

Mäuse [3] = experiment: Strophantin toxicity (arrhythmia), time to death
Source text: Unter Berücksichtigung der Tatsache, dass einige Verbindungen, die ähnlich mit der erfindungsgemässen Verbindung eine sedative Wirkung besitzen, als symptomatische Mittel zur Behandlung von verschiedenen Arrhythmienarten angewendet werden können, wurde der Einfluss der erfindungsgemässen Verbindung auf die toxischen Strophantin-Effekte geprüft, die mit der Herzrhythmusstörung verbunden sind. Dazu wurde bei weissen Mäusen (die Gruppe aus I0 Tieren) die Zeit des Todeseintritts bei der intravenösen Einführung von Strophantin (0,0I%ige wässrige Lösung) im einzelnen und in Kombination mit der neuen Verbindung und mit γ -Amino--β -phenylbuttersäurehydrochlorid bestimmt. Die Ergebnisse dieser Versuche sind in der Tabelle 25 angeführt.

Ratten = experiment: Habituation study over 6 months: motor activity of rats in actometer
Source text: Das Ausbleiben der Gewöhnung an die beanspruchte Verbindung wurde auch in den Rattenversuchen festgestellt, die im Laufe von 6 Monaten zur Bestimmung der motorischen Aktivität der Ratten durchgeführt wurden.

Mäuse [4] = experiment: Acute toxicity, mice
Method: Die akute Toxizität der beanspruchten Verbindung wurde an Mäusen und Ratten (die Gruppe aus 9 bis I2 Tieren) bei der intravenösen, intraperitonealen Einführung der beanspruchten Verbindung sowie bei deren Einführung in den Magen bestimmt.
Es wurden der letale Ausgang, der Allgemeinzustand, die Vergiftungssymptome registriert. LD₅₀ wurde nach der Methode von Lichtfield und Wilcoxon bestimmt. LD₅₀ der neuen Verbindung beträgt für Mäuse bei der intravenösen Einführung 580 mg/kg, bei der intraperitonealen Einführung I450 mg/kg, bei der Einführung in den Magen 4600 mg/kg; für Ratten bei der intraperitonealen Einführung beträgt LD₅₀ 883 mg/kg, bei der Einführung in den Magen - über I500 mg/kg.

[5] = male white mice, convulsants Pikrotoxin, Bicucullin, Korazol, Thiosemikarbazid

For “γ -Amino- β -phenylbuttersäureorotat [Erfindungsgemässe Verbindung]”, the “Anzahl der Impulse im Aktometer innerhalb von 60 min” value (Mäuse [1]; 50 mg/kg + Phenamin 5 mg/kg i.p. 10 min later) was 1884±111, the “Anzahl der Impulse im Aktometer innerhalb von 60 min” value (Mäuse [1]; 75 mg/kg + Phenamin 5 mg/kg i.p. 10 min later) was 1125±141 and the “Anzahl der Impulse im Aktometer innerhalb von 60 min” value (Mäuse [1]; 100 mg/kg + Phenamin 5 mg/kg i.p. 10 min later) was 812±62. The “Anzahl der Impulse im Aktometer innerhalb von 60 min” value (Mäuse [1]; 150 mg/kg + Phenamin 5 mg/kg i.p. 10 min later) was 811±98, the “krampflösende Wirksamkeit” value (Mäuse [2]; Dosen von 50 bis 200 mg/kg) was “keine ausgeprägte krampflösende Wirksamkeit” and the “Anteil von Tieren, bei denen der Krampf beobachtet wurde” value (Mäuse [2]; [5]) was “verringert nicht”. For the same substance, the Krampflatenzzeit (Mäuse [2]; [5]) was “verlängert sicher”, the “Zeit des Todeseintritts” value (Mäuse [3]; 50 mg/kg + Strophantin 1,7 mg/kg i.v.) was 22,3 (8,9 - 35,6) min and the “Verlängerung der Zeit des Todeseintritts der Tiere” value (Mäuse [3]; 50 mg/kg, Strophantin) was 2,5 fache. The “Zahl der Impulse im Aktometer innerhalb von 30 min” value (Ratten; day 1, 25 mg/kg) was 183±24, the “Zahl der Impulse im Aktometer innerhalb von 30 min” value (Ratten; day 1, 75 mg/kg) was 111±13 and the “Zahl der Impulse im Aktometer innerhalb von 30 min” value (Ratten; day 1, 200 mg/kg) was 15±16. The “Zahl der Impulse im Aktometer innerhalb von 30 min” value (Ratten; day 35, 25 mg/kg) was 171±18, the “Zahl der Impulse im Aktometer innerhalb von 30 min” value (Ratten; day 35, 75 mg/kg) was 129±14 and the “Zahl der Impulse im Aktometer innerhalb von 30 min” value (Ratten; day 35, 200 mg/kg) was 64±18. For the same substance, the “Zahl der Impulse im Aktometer innerhalb von 30 min” value (Ratten; day 70, 25 mg/kg) was 126±27, the “Zahl der Impulse im Aktometer innerhalb von 30 min” value (Ratten; day 70, 75 mg/kg) was 81±13 and the “Zahl der Impulse im Aktometer innerhalb von 30 min” value (Ratten; day 70, 200 mg/kg) was 43±15. For the same substance, the “Zahl der Impulse im Aktometer innerhalb von 30 min” value (Ratten; day 85, 25 mg/kg) was 147±19, the “Zahl der Impulse im Aktometer innerhalb von 30 min” value (Ratten; day 85, 75 mg/kg) was 109±17 and the “Zahl der Impulse im Aktometer innerhalb von 30 min” value (Ratten; day 85, 200 mg/kg) was 67±21. For the same substance, the “Zahl der Impulse im Aktometer innerhalb von 30 min” value (Ratten; day 107, 25 mg/kg) was 138±20, the “Zahl der Impulse im Aktometer innerhalb von 30 min” value (Ratten; day 107, 75 mg/kg) was 137±14 and the “Zahl der Impulse im Aktometer innerhalb von 30 min” value (Ratten; day 107, 200 mg/kg) was 79±17. For the same substance, the “Zahl der Impulse im Aktometer innerhalb von 30 min” value (Ratten; day 120, 25 mg/kg) was 145±23, the “Zahl der Impulse im Aktometer innerhalb von 30 min” value (Ratten; day 120, 75 mg/kg) was 118±28 and the “Zahl der Impulse im Aktometer innerhalb von 30 min” value (Ratten; day 120, 200 mg/kg) was 71±13. The “Zahl der Impulse im Aktometer innerhalb von 30 min” value (Ratten; day 138, 25 mg/kg) was 168±32, the “Zahl der Impulse im Aktometer innerhalb von 30 min” value (Ratten; day 138, 75 mg/kg) was 169±31 and the “Zahl der Impulse im Aktometer innerhalb von 30 min” value (Ratten; day 138, 200 mg/kg) was 103±13. The “Zahl der Impulse im Aktometer innerhalb von 30 min” value (Ratten; day 154, 25 mg/kg) was 127±17, the “Zahl der Impulse im Aktometer innerhalb von 30 min” value (Ratten; day 154, 75 mg/kg) was 181±31 and the “Zahl der Impulse im Aktometer innerhalb von 30 min” value (Ratten; day 154, 200 mg/kg) was 85±24. For the same substance, the “Zahl der Impulse im Aktometer innerhalb von 30 min” value (Ratten; day 180, 25 mg/kg) was 154±30, the “Zahl der Impulse im Aktometer innerhalb von 30 min” value (Ratten; day 180, 75 mg/kg) was 148±13 and the “Zahl der Impulse im Aktometer innerhalb von 30 min” value (Ratten; day 180, 200 mg/kg) was 117±18. The LD₅₀ (Mäuse [4]; into the stomach) was 4600 mg/kg and the LD₅₀ (Mäuse [4]; intravenous) was 580 mg/kg.
